From US20200207989A1, “FLUORESCENT PROBE FOR ALDH3A1 DETECTION” (The University of Tokyo, priority 2016, published 2020)

Experiments:
[1] = target: T1, ALDH1A1 (Homo sapiens, UniProt P00352); test: Reactivity of probes to recombinant ALDH1A1 (UPLC/MS/MS detection of aldehyde and carboxylic acid forms); format: biochemical; details: 10-100 nM ALDH, 10-80 μM compound, Tris buffer pH 7.5, 30 minutes at 37° C., ◯/X not defined by a legend
T1 construct: purchased
T1 sequence (P00352 1-501): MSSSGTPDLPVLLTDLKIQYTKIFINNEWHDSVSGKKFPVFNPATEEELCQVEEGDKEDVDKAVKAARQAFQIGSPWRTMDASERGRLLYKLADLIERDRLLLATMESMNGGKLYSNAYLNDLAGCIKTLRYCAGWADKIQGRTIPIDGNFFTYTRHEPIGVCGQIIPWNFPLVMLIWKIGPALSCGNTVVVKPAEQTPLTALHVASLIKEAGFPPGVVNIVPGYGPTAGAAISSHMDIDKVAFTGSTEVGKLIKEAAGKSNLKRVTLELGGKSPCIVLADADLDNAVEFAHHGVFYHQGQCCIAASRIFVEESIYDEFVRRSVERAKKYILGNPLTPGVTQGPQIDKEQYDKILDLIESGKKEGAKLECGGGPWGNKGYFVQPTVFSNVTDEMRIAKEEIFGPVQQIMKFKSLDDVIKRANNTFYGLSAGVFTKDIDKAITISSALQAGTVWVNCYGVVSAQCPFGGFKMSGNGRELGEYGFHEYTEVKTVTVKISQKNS
Method: (§1) Human recombinant ALDH1A1/1A3/3A1 was purchased, and 100 mM of KCL, 2 mM of DTT, 1 mM of NAD(P), 10-100 nM of each ALDH, and 10-80 μM of each compound were mixed in Tris buffer (100 mM, pH 7.5), reacted for 30 minutes at 37° C., an equal amount of acetonitrile added, and the reaction stopped. The reaction solution was analyzed by UPLC/MS/MS (Waters). The UPCL chromatogram was carried out over five minutes at a flow rate of 800 μL/min by a linear gradient from 5% acetonitrile 0.01 M ammonium formate/water to 95% acetonitrile 0.01 M ammonium formate/water. An aldehyde-form and carboxylic acid-form probe were detected by the absorbance at a wavelength of 504 nm, and m/z of the MS spectrum at each peak was confirmed to agree with the expected m/z.

[2] = target: T1, ALDH1A1; test: Kinetic characteristics (Michaelis-Menten Km, Kcat) with ALDH1A1; format: biochemical; details: five minutes at 37° C., Tris buffer pH 7.5
Method: as §1
(§2) For the reaction, 100 mM of KCL, 2 mM of DTT, 1 mM of NAD(P), and five to six concentrations within the range of 10-100 nM of each ALDH and 0.1-80 μM of each probe were selected, mixed in Tris buffer (100 mM, pH 7.5), and reacted for five minutes at 37° C.; an equal amount of acetonitrile was added, and the reaction was stopped. Detection of the aldehyde-form/carboxylic acid-form probes was carried out using the same method as described above by UPLC/MS/MS. Km and Kcat were calculated by fitting the reaction rate at each probe concentration obtained to the Michaelis-Menten equation. A Kaleida Graph ver. 4.1 (Hulinks, Inc.) was used in fitting.

[3] = target: T2, ALDH3A1 (Homo sapiens, UniProt P30838); test: Kinetic characteristics (Michaelis-Menten Km, Kcat) with ALDH3A1; format: biochemical
T2 construct: purchased
T2 sequence (P30838 1-453): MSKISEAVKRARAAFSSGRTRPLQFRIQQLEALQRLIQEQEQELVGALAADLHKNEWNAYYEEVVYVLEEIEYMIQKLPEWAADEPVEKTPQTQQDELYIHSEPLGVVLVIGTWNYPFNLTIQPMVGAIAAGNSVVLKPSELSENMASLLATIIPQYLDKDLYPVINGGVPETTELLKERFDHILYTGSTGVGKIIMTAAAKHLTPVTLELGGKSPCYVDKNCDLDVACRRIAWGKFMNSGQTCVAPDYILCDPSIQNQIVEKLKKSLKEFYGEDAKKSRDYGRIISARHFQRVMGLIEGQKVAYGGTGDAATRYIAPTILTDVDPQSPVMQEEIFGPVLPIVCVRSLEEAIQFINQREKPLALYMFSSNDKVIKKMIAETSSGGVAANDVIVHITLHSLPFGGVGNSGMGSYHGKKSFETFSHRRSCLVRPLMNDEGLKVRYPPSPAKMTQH
Method: as §1, §2
The Kcat ratio (Kcat of ALDH3A1/Kcat of ALDH1A1) was calculated for probe 1, probe 3, and probe 5 as an indicator of ALDH1A1/ALDH3A1 specificity because the probe reaction rate at the actual probe use concentration is believed to be close to Vmax since Km is relatively small (Table 5).

[4] = HPLC (LC/MS) retention time as measure of hydrophilicity / membrane permeability; format: physicochemical; details: C18 column, 20% B 2.5 min, 20%-->100% B 5 min, 500 μL/min, neutral conditions, mean±SD of three tests
Method: In the present invention, it is preferable to use the retention time on an HPLC chromatogram as the measure of hydrophilicity.
HPLC conditions: taking solvent A to be 0.01 M ammonium formate/water and solvent B to be 80% acetonitrile 0.01 M ammonium formate/water, chromatography is carried out under conditions of 20% solvent B for 2.5 minutes followed by a 5-minute linear gradient of solvent B from 20% to 100% (flow rate 500 μL/min).
A C18 column (HP 3 μm, inner diameter: 2.1 mm, length: 150 mm, GL Science), for example, can be used suitably as the column.
The water solubility was verified by LC/MS under neutral conditions to compare the membrane permeability of the five probes produced above and ALDEFLUOR. The reaction was stopped after advancing the reaction to the point that each probe was present as both a carboxylic acid form and an aldehyde form using a suitable isoform and concentration of ALDH, and analysis was conducted by LC/MS (Agilent 1200/6130 quadrupole LC/MS system). A C18 column (HP 3 μm, inner diameter: 2.1 mm, length: 150 mm, GL Science) was used as the column. HPLC chromatograms were carried out by 20% B for 2.5 minutes followed by a five-minute linear gradient (flow rate: 500 μL/min) from 20% to 100% B, taking solvent A to be 0.01 M ammonium formate/water and solvent B to be 80% acetonitrile 0.01 M ammonium formate/water. The probe containing BODIPY was detected by the absorbance at a wavelength of 504 nm and the probe containing TG at a wavelength of 495 nm, and m/z of the MS spectrum at each peak was confirmed to agree with the expected m/z. Three independent tests were run, and the mean±SD was calculated. […] Given that imaging of probe 1 was not successful, there was thought to be a threshold at which the membrane permeability changes rapidly between this 6.741 minutes and 7.098 minutes (band in FIG. 2).

[5] = five minutes at 37° C., Tris buffer pH 7.5

N-(4-formylbenzyl)-3-(1,3-dimethyl-4,4-difluoro-4-bora-3a,4a-diaza-s-indacen-5-yl)-propionamide [Probe 1]
Reactivity to ALDH1A1 [1]: ◯ | Reactivity to ALDH1A1 ([1]; listed as Compound 1): reacted with all three of the isoforms tested | Kcat ALDH1A1 [2]: 1.36 ± 0.045 s⁻¹ | Km [2]: < 0.2 µM | Kcat ALDH3A1 [3, 5]: 1.12 ± 0.08 s⁻¹ | Km [3, 5]: 58.9 ± 7.6 µM | Kcat ratio (Kcat of ALDH3A1/Kcat of ALDH1A1) ([3]; indicator of ALDH1A1/ALDH3A1 specificity): 0.8 | Retention Time, Aldehyde form [4]: 8.874 ± 0.000 min | Retention Time, carboxylate (carboxylic acid form) [4]: 7.098 ± 0.001 min | Retention Time, carboxylate (carboxylic acid form) ([4]; listed as probe 1): 7.098 min
